Laboratory results from BindingDB's records for doi:10.1021/acsmedchemlett.3c00104 (Novartis Institutes for Biomedical Research, 2023).

What follows are molecules tested against T1, DDB1- and CUL4-associated factor 1 (Homo sapiens, UniProt Q9Y4B6) (assay: Binding affinity to Avi-tagged DCAF1 (1073 to 1399 residues) (unknown origin) expressed in baculovirus infected in Sf9 insect cells by SPR analysis).
T1 sequence (Q9Y4B6 whole entry, the tested form may be a part): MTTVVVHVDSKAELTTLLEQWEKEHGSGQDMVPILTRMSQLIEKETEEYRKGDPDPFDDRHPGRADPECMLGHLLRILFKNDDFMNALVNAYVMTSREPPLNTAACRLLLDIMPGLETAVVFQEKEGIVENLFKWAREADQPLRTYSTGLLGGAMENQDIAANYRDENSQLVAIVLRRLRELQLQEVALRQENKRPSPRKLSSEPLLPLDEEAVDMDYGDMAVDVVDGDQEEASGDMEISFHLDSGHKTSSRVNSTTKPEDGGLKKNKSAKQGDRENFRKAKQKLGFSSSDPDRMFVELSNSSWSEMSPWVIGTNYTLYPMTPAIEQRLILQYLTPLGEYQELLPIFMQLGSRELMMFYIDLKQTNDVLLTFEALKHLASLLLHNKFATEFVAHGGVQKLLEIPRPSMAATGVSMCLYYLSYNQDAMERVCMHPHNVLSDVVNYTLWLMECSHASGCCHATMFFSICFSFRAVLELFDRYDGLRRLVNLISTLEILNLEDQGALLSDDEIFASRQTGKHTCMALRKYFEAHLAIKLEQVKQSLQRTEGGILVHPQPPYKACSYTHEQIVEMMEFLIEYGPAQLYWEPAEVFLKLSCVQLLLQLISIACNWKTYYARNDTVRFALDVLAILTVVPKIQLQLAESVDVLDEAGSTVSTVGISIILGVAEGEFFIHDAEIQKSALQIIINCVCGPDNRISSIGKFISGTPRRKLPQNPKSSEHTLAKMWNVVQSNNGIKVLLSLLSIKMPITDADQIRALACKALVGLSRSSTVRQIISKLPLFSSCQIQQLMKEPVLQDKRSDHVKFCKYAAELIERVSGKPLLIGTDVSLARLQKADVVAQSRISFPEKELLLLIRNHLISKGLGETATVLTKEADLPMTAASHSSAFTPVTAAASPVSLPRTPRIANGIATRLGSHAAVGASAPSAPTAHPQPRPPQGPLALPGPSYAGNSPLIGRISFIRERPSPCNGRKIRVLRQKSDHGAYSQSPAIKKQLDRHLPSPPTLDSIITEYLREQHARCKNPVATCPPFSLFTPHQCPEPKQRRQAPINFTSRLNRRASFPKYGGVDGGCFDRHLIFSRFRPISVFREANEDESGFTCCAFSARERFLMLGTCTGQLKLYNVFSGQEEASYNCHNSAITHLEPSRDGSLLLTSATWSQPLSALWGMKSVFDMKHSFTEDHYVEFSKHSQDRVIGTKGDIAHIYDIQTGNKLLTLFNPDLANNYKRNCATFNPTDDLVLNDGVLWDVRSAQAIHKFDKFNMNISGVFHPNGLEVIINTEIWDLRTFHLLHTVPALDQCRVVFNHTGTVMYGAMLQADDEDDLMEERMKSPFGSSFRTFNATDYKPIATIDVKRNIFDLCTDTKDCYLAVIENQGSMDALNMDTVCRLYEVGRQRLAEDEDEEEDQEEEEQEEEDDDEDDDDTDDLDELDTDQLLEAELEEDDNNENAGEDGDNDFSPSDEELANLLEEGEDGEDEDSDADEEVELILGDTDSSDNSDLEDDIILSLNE
Molecule `CN1CCN(c2ccc3c(NCCN)nc(C4(c5ccc(Cl)cc5)CCCCC4)nc3c2)CC1` has a Kd of 0.083 µM.
For `COc1ccc(C2(c3nc(NCCN)c4ccccc4n3)CC2)cc1`, the Kd was 26.7 µM.
In the case of `COc1ccc(C2(C3=Cc4ccccc4C4=NCCN34)CC2)cc1`, the Kd is reported as > 50 µM.
For `CN1CCN(c2ccc3c(NCCN)nc(C4(c5ccc(Cl)cc5)CCCC4)nc3c2)CC1`, the Kd was 0.098 µM.
In the case of `Clc1ccc(C2(C3=Cc4ccccc4C4=NCCN34)CC2)cc1`, the Kd is reported as 41 µM.
`COc1ccc(C2(c3nc(NCCN)c4ccc(N5CCN(C)CC5)cc4n3)CC2)cc1` gave a Kd of 5.6 µM.
With `CC(=O)N1CCN(c2ccc3c(NCCN)nc(C4(c5ccc(Cl)cc5)CCCC4)nc3c2)CC1` the Kd was 0.047 µM.
In the case of `NC1=NCC(c2cccc(Oc3ccc(Cl)cc3)c2)C1` (stereo not drawn), the Kd is reported as > 100 µM.
Work on `COc1ccc(C2(c3nc(NCCN)c4ccc(N5CCN(C(C)=O)CC5)cc4n3)CC2)cc1` yielded a Kd of 1.5 µM.
For `COc1ccc(C2(C3=Cc4cc(N5CCN(C)CC5)ccc4C4=NCCN34)CC2)cc1`, the Kd was 11.4 µM.

Each molecule was assayed against T1, DDB1- and CUL4-associated factor 1 (assay: Binding affinity to Avi-tagged DCAF1 (1039 to 1401 residues) (unknown origin) expressed in baculovirus infected in Sf9 insect cells by NMR analysis).
`Clc1ccc(C2(C3=Cc4ccccc4C4=NCCN34)CC2)cc1` was tested, and the Kd was 13 µM.
`CC(C)(Cc1ccccc1)C1=Cc2ccccc2C2=NCCN12` showed a Kd of 40 µM.
With `NC1=NCC(c2cccc(Oc3ccc(Cl)cc3)c2)C1` (stereo not drawn) the Kd was > 500 µM.
